Source: patent publication US8003649B2 (AstraZeneca AB, priority 2007, dated 2011)

These molecules were tested against T1, Androgen Receptor (AR) (Homo sapiens, UniProt P10275, T878A) (assay: LNCaP Androgen Receptor Down-regulation Cell Assay (immunofluorescence end point)). Conditions: LNCaP prostate carcinoma cells, compound incubation 20-22 hours, 50% reduction of the AR signal; read-out: Androgen Receptor Down-regulation Assay (a) IC50/μM.
T1 construct: cell based immuno-fluorescence assay using the LNCaP prostate epithelial cell line; endogenous in cells; host or cells: LNCaP clone FGC (ATCC CRL-1740)
T1 sequence (P10275 1-920 T878A): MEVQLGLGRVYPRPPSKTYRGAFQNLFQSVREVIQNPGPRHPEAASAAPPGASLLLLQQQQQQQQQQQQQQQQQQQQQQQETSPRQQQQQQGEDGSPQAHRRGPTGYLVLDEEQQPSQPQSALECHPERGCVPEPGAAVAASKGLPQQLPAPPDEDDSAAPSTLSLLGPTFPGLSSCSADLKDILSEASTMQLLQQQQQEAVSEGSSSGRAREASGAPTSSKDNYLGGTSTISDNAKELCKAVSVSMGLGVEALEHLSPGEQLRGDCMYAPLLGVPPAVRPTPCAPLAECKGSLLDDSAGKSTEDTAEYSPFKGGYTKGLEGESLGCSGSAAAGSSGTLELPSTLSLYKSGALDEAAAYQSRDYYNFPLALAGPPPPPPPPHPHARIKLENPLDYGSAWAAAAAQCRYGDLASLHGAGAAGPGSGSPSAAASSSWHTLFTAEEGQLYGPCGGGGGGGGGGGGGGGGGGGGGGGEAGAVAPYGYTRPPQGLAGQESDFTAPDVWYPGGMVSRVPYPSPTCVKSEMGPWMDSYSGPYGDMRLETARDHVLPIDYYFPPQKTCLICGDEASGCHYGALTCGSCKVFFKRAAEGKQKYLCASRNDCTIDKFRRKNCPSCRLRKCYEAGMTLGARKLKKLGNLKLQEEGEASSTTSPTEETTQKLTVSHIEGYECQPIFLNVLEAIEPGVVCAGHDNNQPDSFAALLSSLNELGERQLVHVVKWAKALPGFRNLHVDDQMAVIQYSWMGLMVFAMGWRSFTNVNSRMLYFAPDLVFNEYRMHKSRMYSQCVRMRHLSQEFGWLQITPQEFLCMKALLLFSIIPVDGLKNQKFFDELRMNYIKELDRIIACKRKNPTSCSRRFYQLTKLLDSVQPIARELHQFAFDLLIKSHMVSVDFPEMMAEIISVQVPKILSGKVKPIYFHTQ
Type: cell-based
Summary of the method: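 AR loss reported as IC50 from curve fits of fluorescence dose-response data, with AR immunostained and read by laser-scanning cytometry. Compound exposure was 20-22 h at 37° C in LNCaP cells grown in 5% charcoal-stripped FBS and plated overnight beforehand.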
Work on `Fc1ccc(CN2CCN(c3ccc4nnc(C(F)F)n4n3)CC2)c(F)c1F` [Example 823] yielded a DC50 of 4.7 µM. In the case of `FC(F)c1ccccc1CN1CCN(c2ccc3nnc(C(F)F)n3n2)CC1` [Example 824, 3-(difluoromethyl)-6-[4-[2-(difluoromethyl)benzyl]piperazin-1-yl][1,2,4]triazolo[4,3-b]pyridazine], the DC50 is reported as 1.9 µM. `FC(F)c1cccc(CN2CCN(c3ccc4nnc(C(F)F)n4n3)CC2)c1` [Example 825, 3-(difluoromethyl)-6-[4-[3-(difluoromethyl)benzyl]piperazin-1-yl][1,2,4]triazolo[4,3-b]pyridazine] showed a DC50 of 1.9 µM. `FC(F)c1ccc(CN2CCN(c3ccc4nnc(C(F)F)n4n3)CC2)cc1` [Example 826, 3-(difluoromethyl)-6-[4-[4-(difluoromethyl)benzyl]piperazin-1-yl][1,2,4]triazolo[4,3-b]pyridazine] showed a DC50 of 1.4 µM. `FC(F)c1ccc(CN2CCN(c3ccc4nnc(C(F)(F)F)n4n3)CC2)cc1` [Example 827, 6-[4-[4-(difluoromethyl)benzyl]piperazin-1-yl]-3-(trifluoromethyl)[1,2,4]triazolo[4,3-b]pyridazine] showed a DC50 of 1 µM. `C[C@@H]1CN(c2ccc3nnc(C(F)(F)F)n3n2)CCN1Cc1ccncc1` [Example 828, 6-[(3R)-3-methyl-4-(pyridin-4-ylmethyl)piperazin-1-yl]-3-(trifluoromethyl)[1,2,4]triazolo[4,3-b]pyridazine] was tested, and the DC50 was 9.5 µM. In the case of `C[C@@H]1CN(c2ccc3nnc(C(F)(F)F)n3n2)CCN1Cc1cccc(Br)n1` [Example 830], the DC50 is reported as 0.85 µM. Molecule `C[C@@H]1CN(c2ccc3nnc(C(F)(F)F)n3n2)CCN1Cc1cccnc1Cl` [Example 832] has a DC50 of 1.4 µM. In the case of `C[C@@H]1CN(c2ccc3nnc(C(F)(F)F)n3n2)CCN1Cc1ccc(Cl)nc1` [Example 833], the DC50 is reported as > 12 µM. `C[C@@H]1CN(c2ccc3nnc(C(F)(F)F)n3n2)CCN1Cc1cc(Br)cnc1F` [Example 835] gave a DC50 of 20 µM. `N#Cc1ccc(CN2CC3CN(c4ccc5nnc(C(F)(F)F)n5n4)CC3C2)cn1` (stereo not shown) [Example 837, 5-[[5-[3-(trifluoromethyl)[1,2,4]triazolo[4,3-b]pyridazin-6-yl]hexahydropyrrolo[3,4-c]pyrrol-2(1H)-yl]methyl]pyridine-2-carbonitrile] gave a DC50 of 1.6 µM. With `N#Cc1ccc(CN2CCN(c3ccc4nnc(C(F)(F)F)n4n3)CC2)cn1` [Example 838, 5-[[4-[3-(trifluoromethyl)[1,2,4]triazolo[4,3-b]pyridazin-6-yl]piperazin-1-yl]methyl]pyridine-2-carbonitrile] the DC50 was 7.6 µM. Work on `Fc1ccc(CN2[C@@H]3CC[C@H]2CN(c2ccc4nnc(C(F)(F)F)n4n2)C3)cc1` [Example 839] yielded a DC50 of 1.1 µM. In the case of `N#Cc1cccc(CN2[C@@H]3CC[C@H]2CN(c2ccc4nnc(C(F)(F)F)n4n2)C3)c1` [Example 840], the DC50 is reported as 2.6 µM. `N#Cc1ccc(CN2[C@@H]3CC[C@H]2CN(c2ccc4nnc(C(F)(F)F)n4n2)C3)cc1` [Example 841] was tested, and the DC50 was 2.9 µM. With `Fc1cccc(CN2CCN(c3ccc4nnc(C(F)(F)F)n4n3)CC(F)(F)C2)c1` [Example 842] the DC50 was 1.1 µM. For `N#Cc1ccc(CN2CCN(c3ccc4nnc(C(F)(F)F)n4n3)CC(F)(F)C2)cc1` [Example 843], the DC50 was 0.93 µM. `N#Cc1cccc(CN2CCN(c3ccc4nnc(C(F)(F)F)n4n3)CC(F)(F)C2)c1` [Example 844] was tested, and the DC50 was 0.78 µM. Work on `FC(F)(F)c1nnc2ccc(N3CCN(c4ccc(OCCn5ccnc5)cc4)CC3)nn12` [Example 845, 6-[4-[4-[2-(1H-imidazol-1-yl)ethoxy]phenyl]piperazin-1-yl]-3-(trifluoromethyl)[1,2,4]triazolo[4,3-b]pyridazine] yielded a DC50 of 0.9 µM. `FC(F)(F)c1nnc2ccc(N3CCC(c4ccc(OCCn5ccnc5)cc4)CC3)nn12` [Example 846, 6-[4-[4-[2-(1H-imidazol-1-yl)ethoxy]phenyl]piperidin-1-yl]-3-(trifluoromethyl)[1,2,4]triazolo[4,3-b]pyridazine] was tested, and the DC50 was 0.27 µM. With `N#Cc1cnn(CCOc2ccc(N3CCN(c4ccc5nnc(C(F)(F)F)n5n4)CC3)cc2)c1` [Example 848, 1-[2-[4-[4-[3-(trifluoromethyl)[1,2,4]triazolo[4,3-b]pyridazin-6-yl]piperazin-1-yl]phenoxy]ethyl]-1H-pyrazole-4-carbonitrile] the DC50 was 3.5 µM. `FC(F)(F)c1nnc2ccc(N3CCC(c4ccc(OCCn5cccn5)cc4)CC3)nn12` [Example 849, 6-[4-[4-[2-(1H-pyrazol-1-yl)ethoxy]phenyl]piperidin-1-yl]-3-(trifluoromethyl)[1,2,4]triazolo[4,3-b]pyridazine] gave a DC50 of 0.68 µM. `N#Cc1cnn(CCOc2ccc(C3CCN(c4ccc5nnc(C(F)(F)F)n5n4)CC3)cc2)c1` [Example 850] showed a DC50 of 0.56 µM. `COCCN(C)C(=O)COc1ccc(C2CCN(c3ccc4nnc(C(F)(F)F)n4n3)CC2)cc1` [Example 851, N-(2-methoxyethyl)-N-methyl-2-[4-[1-[3-(trifluoromethyl)[1,2,4]triazolo[4,3-b]pyridazin-6-yl]piperidin-4-yl]phenoxy]acetamide] showed a DC50 of 0.92 µM. `CC(=O)N1CCN(CCOc2ccc(C3CCN(c4ccc5nnc(C(F)(F)F)n5n4)CC3)cc2)CC1` [Example 852, 6-[4-[4-[2-(4-acetylpiperazin-1-yl)ethoxy]phenyl]piperidin-1-yl]-3-(trifluoromethyl)[1,2,4]triazolo[4,3-b]pyridazine] gave a DC50 of 0.29 µM. In the case of `CS(=O)(=O)N1CCN(CCCOc2ccc(C3CCN(c4ccc5nnc(C(F)(F)F)n5n4)CC3)cc2)CC1` [Example 855, 6-[4-[4-[3-[4-(methylsulfonyl)piperazin-1-yl]propoxy]phenyl]piperidin-1-yl]-3-(trifluoromethyl)[1,2,4]triazolo[4,3-b]pyridazine], the DC50 is reported as 0.44 µM. Work on `Cn1nccc1CCOc1ccc(N2CCN(c3ccc4nnc(C(F)F)n4n3)CC2)cc1` [Example 856, 3-(difluoromethyl)-6-[4-[4-[2-(1-methyl-1H-pyrazol-5-yl]ethoxy]phenyl]piperazin-1-yl)[1,2,4]triazolo[4,3-b]pyridazine] yielded a DC50 of 2.2 µM. In the case of `N#Cc1ccc(S(=O)(=O)N2CCN(c3ccc4nnc(C(F)(F)F)n4n3)CC2)cc1` [Example 857, 4-[4-[3-(trifluoromethyl)-[1,2,4]triazolo[3,4-f]pyridazin-6-yl]piperazin-1-yl]sulfonylbenzonitrile], the DC50 is reported as > 33 µM. With `C[C@H](c1ccc(C#N)cc1)N1CCN(c2ccc3nnc(C(F)F)n3n2)CC1` [Example 858, 4-[(1R)-1-[4-[3-(difluoromethyl)-[1,2,4]triazolo[3,4-f]pyridazin-6-yl]piperazin-1-yl]ethyl]benzonitrile] the DC50 was > 33 µM. With `CS(=O)(=O)c1cc(F)cc(CN2CCN(c3ccc4nnc(C(F)F)n4n3)CC2)c1` [Example 859, 3-(difluoromethyl)-6-[4-[3-fluoro-5-(methylsulfonyl)benzyl]piperazin-1-yl][1,2,4]triazolo[4,3-b]pyridazine] the DC50 was > 33 µM. `Cn1nccc1CCOc1ccc(C2(O)CCN(c3ccc4nnc(C(F)(F)F)n4n3)CC2)cc1` [Example 860, 4-[4-[2-(1-methyl-1H-pyrazol-5-yl)ethoxy]phenyl]-1-[3-(trifluoromethyl)[1,2,4]triazolo[4,3-b]pyridazin-6-yl]piperidin-4-ol] showed a DC50 of 0.8 µM.
